Test results published in US20080004271A1, “Inhibitors of TNFalpha, PDE4 and B-RAF, compositions thereof and methods of use therewith” (priority 2006, published 2008).

Tests used:
A375 cells = assay: Alamar Blue Viability Assay; assay type: cell-based; conditions: Homo sapiens, A-375, 72 h, 3 days
Method: A375 cells (ATCC # CRL-1619; Passage 4˜15; doubling time is roughly 18 hours) are used. Culture medium is DMEM (high glucose, with L-glutamine)+10% FBS+Pen/Strep. Cells are passed every three days at 1:20.
200 μl of medium only is added into all wells along the edges of a 96-well flat bottom plate and 180 μl of cell suspension (containing 1,000 cells) per well is added into the plate with a Low Evaporation Lid (Costar Cat # 3595). The cells are cultured overnight. Compounds and controls are diluted according to standard compound dilution protocol described below. From 30 mM stock solution, 10 mM, 3 mM, 1 mM, and 0.3 mM solutions in 100% DMSO are prepared using the following serial dilution protocol:
The 30, 10, 3, 1 and 0.3 mM solutions are diluted 1:50 (DMSO:medium) by adding 4 μl of each to 196 μl of culture medium. This yields 600 μM, 200 μM, 60 μM, 20 μM, and 6 μM secondary stock solutions. 4 μl of DMSO are added to 196 μl medium for the DMSO control as well. 20 μl of compound dilutions, including the DMSO control locations (Row G, Columns 2-10 are DMSO control wells), are added in triplicate to the cells in the 96-well plate using a repeat pipettor (see plate layout below). This yields final concentrations of 60 μM, 20 μM, 6 μM, 2 μM, and 0.6 μM containing 0.2% DMSO in each well. The plate is gently tapped to evenly distribute compound within the well. The plate is incubated at 5% CO2 at 37° C. for 3 days.
20 μl of Alamar Blue (Biosource #DAL-1100) is added to each well. The plate is incubated in 5% CO2 incubator for 4 hours. Fluorescence is measured with excitation wavelength at 530 nm and emission wavelength at 590 nm using a Victor 2 multilabel plate reader (Perkin Elmer). Data is saved with plate format as a Text file and entered into ActivityBase (Cell-based SAR; Prolif-Alamar; MTT 5 plates unfixed fit) to calculate the percent of DMSO values for each compound set of triplicate wells and IC50 curves are plotted.

pMEK1/2 in A375 cells = assay: A375 pMEK1/2 Meso Scale Assay; assay type: cell-based; conditions: Homo sapiens, A-375, 2 h; A375 pMEK1/2, about two hours incubation
Method: On the afternoon of Day 1, cells are plated in a 96-well flat bottom cell culture plate at about 50,000 cells/well in a volume of 100 μl. On the morning of Day 2, serial dilutions of test compound(s) are added to the plate. The plate is incubated for about two hours at 37° C., […]. The plate is blocked about five minutes before the compound incubation step is completed by adding 150 μl/well of MSD (Meso Scale Discovery) blocking solution-A (prepared with 20 ml 1× Tris wash buffer (25 ml of 10× Tris buffer+225 ml deionized water) and 600 mg MSD blocker A) and incubating with vigorous shaking at room temperature for one hour. The plate is washed 4× with 1× Tris wash buffer.
Cells are harvested and lysates prepared by removing medium, washing 1× with ice-cold PBS (calcium and magnesium free), adding 50 μl/well Complete Tris buffer and incubating with shaking at 4° C. for one hour. Lysate samples (25 μl) are added to an MSD Multi-Spot plate and incubated with vigorous shaking at room temperature for two hours. The plate is washed 1× with Tris wash buffer.
25 μl/well of […] detection antibody (Anti-pMEK1/2 antibody; SULFO-TAG labeled, light sensitive) in 3 ml of cold antibody dilution buffer (1 ml blocking solution-A, 1.82 ml 1× Tris wash buffer, 150 μl 2% MSD blocker D-M and 30 μl 10% MSD blocker D-R) is added and the plate is incubated with vigorous shaking at room temperature in the dark for one hour. The plate is washed 1× with Tris wash buffer.
150 μl/well of 1× MSD Read buffer T (with surfactant) is added to the plate and the plate is read using a MSD Sector instrument.

V600E mutant B-RAF = biological target: T1, V600E mutant B-RAF (Homo sapiens, UniProt P15056, V600E); assay: V600E Mutant B-RAF 33P Assay; assay type: biochemical
T1 construct: purchased Upstate
T1 sequence (P15056 whole entry V600E): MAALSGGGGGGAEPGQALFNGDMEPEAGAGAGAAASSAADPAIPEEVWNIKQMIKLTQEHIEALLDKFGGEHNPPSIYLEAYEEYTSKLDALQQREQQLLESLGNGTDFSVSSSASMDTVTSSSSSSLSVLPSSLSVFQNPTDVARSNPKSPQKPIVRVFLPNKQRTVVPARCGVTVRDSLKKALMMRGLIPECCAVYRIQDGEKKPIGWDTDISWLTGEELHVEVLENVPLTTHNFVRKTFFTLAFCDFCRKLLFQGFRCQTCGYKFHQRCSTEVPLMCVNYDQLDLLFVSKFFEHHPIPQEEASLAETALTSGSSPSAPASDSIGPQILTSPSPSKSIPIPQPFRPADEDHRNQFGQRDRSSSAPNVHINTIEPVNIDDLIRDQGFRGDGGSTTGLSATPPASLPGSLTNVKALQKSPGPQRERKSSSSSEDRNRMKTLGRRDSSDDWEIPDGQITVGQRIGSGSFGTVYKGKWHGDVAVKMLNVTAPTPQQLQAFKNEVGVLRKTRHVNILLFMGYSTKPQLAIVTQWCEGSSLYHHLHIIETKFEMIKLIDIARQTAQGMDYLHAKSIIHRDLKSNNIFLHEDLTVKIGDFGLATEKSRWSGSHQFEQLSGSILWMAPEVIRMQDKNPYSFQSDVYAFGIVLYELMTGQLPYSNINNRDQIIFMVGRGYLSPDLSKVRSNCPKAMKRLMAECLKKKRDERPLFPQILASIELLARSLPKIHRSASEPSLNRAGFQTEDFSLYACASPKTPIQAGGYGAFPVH
Method: Substrate (HIS-MEK1 K97M) is prepared by Celgene Corp. as described above.
Test compound is diluted in 100% DMSO (600 μM). […] Substrate mixture is prepared as 7.5 μM HIS-MEK1 K97M in assay buffer. ATP mixture is prepared as 300 μM ATP, 75 mM MgCl2, 0.05 μCi/μl ^33P ATP in assay buffer.
In a 96 well assay plate (Falcon Polylpropylene well U-bottom), the following are added to each well: 2.5 μl of test compound solution (serial dilutions), 20 μl of substrate mixture and 17.5 μl of enzyme mixture. The plate is incubated for at least 15 minutes. 10 μl of ATP mixture is added and the plate is incubated at room temperature for about 60 minutes. 80 μl of 12.5% TCA is added to each well, and the plate is incubated for at least 20 minutes. The contents of the plate is transferred to a glass fiber filter plate (Millipore) using a Packard Harvester (washing 10× with 1×PBS). 50 μl of Scintillation-20 fluid is added to each well. The plate is read using a Packard TopCount.

| SMILES | melting point [°C] | IC50 (A375 cells) [µM] | IC50 (pMEK1/2 in A375 cells) [µM] | IC50 (V600E mutant B-RAF) [µM] |
| --- | --- | --- | --- | --- |
| NC(=O)c1sc2ncnc(-c3cc4c(c(OCc5ccccc5)c3)CCO4)c2c1N [Example 5.2.140, 5-amino-4-(4-(benzyloxy)-2,3-dihydrobenzofuran-6-yl)thieno[2,3-d]pyrimidine-6-carboxamide] | 239 | – | – | – |
| NC(=O)c1sc2nc(NCC(O)CO)nc(-c3ccc(Cl)c(Cl)c3)c2c1N (stereo not shown) [Example 220] | – | 20 to 30 | 10 to 20 | 0.1 to 10 |
| COCCCNc1nc(-c2ccc(Cl)c(Cl)c2)c2c(N)c(C(N)=O)sc2n1 [Example 222] | – | 20 to 30 | 20 to 30 | 0.1 to 10 |
| NC(=O)c1sc2nc(N[C@H]3CCNC3)nc(-c3ccc(Cl)c(Cl)c3)c2c1N [Example 224] | – | 10 to 20 | 0.1 to 10 | 0.1 to 10 |
| NC(=O)c1sc2nc(N[C@@H]3CCNC3)nc(-c3ccc(Cl)c(Cl)c3)c2c1N [Example 225] | – | 0.1 to 10 | 0.1 to 10 | 0.1 to 10 |
| NC(=O)c1sc2nc(NC3CCNCC3)nc(-c3ccc(Cl)c(Cl)c3)c2c1N [Example 226] | – | 0.1 to 10 | 0.1 to 10 | 0.1 to 10 |
| NC(=O)c1sc2nc(N[C@H]3CCOC3)nc(-c3ccc(Cl)c(Cl)c3)c2c1N [Example 228] | – | 10 to 20 | 0.1 to 10 | 0.1 to 10 |
| COc1ccc(F)c(-c2nc(NC3CC3)nc3sc(C(N)=O)c(N)c23)c1 [Example 230] | – | 20 to 30 | 10 to 20 | 0.1 to 10 |
| NC(=O)c1sc2nc(NC3CC3)nc(-c3cc(O)ccc3F)c2c1N [Example 231] | – | 0.1 to 10 | 0.1 to 10 | 0.1 to 10 |
| NC(=O)c1sc2nc(NC3CC3)nc(-c3ccc(C(F)(F)F)c(O)c3)c2c1N [Example 234] | – | 30 to 60 | 0.1 to 10 | 0.1 to 10 |
| Cc1c(O)cccc1-c1nc(NC(C)(C)CO)nc2sc(C(N)=O)c(N)c12 [Example 239] | – | 0.1 to 10 | 0.1 to 10 | 0.1 to 10 |
| C[C@@H](CO)Nc1nc(-c2cccc(O)c2F)c2c(N)c(C(N)=O)sc2n1 [Example 240] | – | 20 to 30 | 0.1 to 10 | 0.1 to 10 |
| C[C@H](CO)Nc1nc(-c2cccc(O)c2F)c2c(N)c(C(N)=O)sc2n1 [Example 241] | – | 10 to 20 | 0.1 to 10 | 0.1 to 10 |
| CC[C@@H](CO)Nc1nc(-c2cccc(O)c2F)c2c(N)c(C(N)=O)sc2n1 [Example 242] | – | 10 to 20 | 0.1 to 10 | 0.1 to 10 |
| CC[C@H](CO)Nc1nc(-c2cccc(O)c2F)c2c(N)c(C(N)=O)sc2n1 [Example 243] | – | 0.1 to 10 | 0.1 to 10 | 0.1 to 10 |
| NC(=O)c1sc2nc(NC3CC3)nc(-c3cccc(NCCc4ccccc4)c3)c2c1N [Example 247] | – | 0.1 to 10 | 0.1 to 10 | 0.1 to 10 |
| NC(=O)c1sc2nc(NC3CC3)nc(-c3cccc(NC(=O)Nc4ccc(Cl)c(C(F)(F)F)c4)c3)c2c1N [Example 249] | – | 0.1 to 10 | 0.1 to 10 | 0.1 to 10 |
| NC(=O)c1sc2nc(NC3CC3)nc(-c3cccc(NC(=O)Nc4ccc(F)cc4)c3)c2c1N [Example 252] | – | 0.1 to 10 | 0.1 to 10 | 0.1 to 10 |
| CC(C)(CN)CNc1nc(-c2ccc(Cl)c(Cl)c2)c2c(N)c(C(N)=O)sc2n1 [Example 253] | – | 0.1 to 10 | 0.1 to 10 | 0.1 to 10 |
| CC(C)(CN)Nc1nc(-c2ccc(Cl)c(Cl)c2)c2c(N)c(C(N)=O)sc2n1 [Example 256] | – | 0.1 to 10 | 0.1 to 10 | 0.1 to 10 |
| CC[C@H](CO)Nc1nc(-c2cccc(NC(=O)Nc3ccc(C(F)(F)F)cc3)c2)c2c(N)c(C(N)=O)sc2n1 [Example 258] | – | 0.1 to 10 | 0.1 to 10 | 0.1 to 10 |
| CC[C@@H](CO)Nc1nc(-c2cccc(NC(=O)Nc3ccc(C(F)(F)F)cc3)c2)c2c(N)c(C(N)=O)sc2n1 [Example 259] | – | 0.1 to 10 | 0.1 to 10 | 0.1 to 10 |
| C[C@@H](CO)Nc1nc(-c2cccc(NC(=O)Nc3ccc(C(F)(F)F)cc3)c2)c2c(N)c(C(N)=O)sc2n1 [Example 261] | – | 10 to 20 | 0.1 to 10 | 0.1 to 10 |
| CC(C)(CO)Nc1nc(-c2cc(O)c(Cl)c(Cl)c2)c2c(N)c(C(N)=O)sc2n1 [Example 264] | – | 0.1 to 10 | 0.1 to 10 | 0.1 to 10 |
| Cc1ccc(-c2nc(NC3CC3)nc3sc(C(N)=O)c(N)c23)cc1 [Example 265] | – | 20 to 30 | 20 to 30 | 0.1 to 10 |

Second part, the molecule after the results:

| melting point [°C] | IC50 (A375 cells) [µM] | IC50 (pMEK1/2 in A375 cells) [µM] | IC50 (V600E mutant B-RAF) [µM] | SMILES |
| --- | --- | --- | --- | --- |
| – | 0.1 to 10 | 20 to 30 | 0.1 to 10 | Cc1nc(-c2ccc(Cl)c(Cl)c2)c2c(N)c(C(N)=O)sc2n1 [Example 270] |
| – | 10 to 20 | 30 to 60 | 0.1 to 10 | CC(C)Cc1nc(-c2ccc(Cl)c(Cl)c2)c2c(N)c(C(N)=O)sc2n1 [Example 271] |
| – | 10 to 20 | 0.1 to 10 | 0.1 to 10 | CC(C)[C@H](CO)Nc1nc(-c2ccc(Cl)c(Cl)c2)c2c(N)c(C(N)=O)sc2n1 [Example 273] |
| – | 0.1 to 10 | 0.1 to 10 | 0.1 to 10 | Cc1ccc(-c2nc(NC(C)(C)CO)nc3sc(C(N)=O)c(N)c23)cc1O [Example 274] |
| – | 10 to 20 | 10 to 20 | 0.1 to 10 | COc1cncc(-c2ncnc3sc(C(N)=O)c(N)c23)c1 [Example 275] |
| – | 10 to 20 | > 60 | 0.1 to 10 | COc1cncc(-c2nc(C)nc3sc(C(N)=O)c(N)c23)c1 [Example 276] |
| – | 0.1 to 10 | 0.1 to 10 | 0.1 to 10 | NC(=O)c1sc2ncnc(-c3cc(O)cc(Cl)c3)c2c1N [Example 280] |
| – | 10 to 20 | 10 to 20 | 0.1 to 10 | CC(C)(CN)Nc1nc(-c2cccc(NC(=O)Nc3ccc(C(F)(F)F)cc3)c2)c2c(N)c(C(N)=O)sc2n1 [Example 282] |
| – | 10 to 20 | 0.1 to 10 | 0.1 to 10 | NC(=O)c1sc2ncnc(-c3cccc(NC(=O)Cc4ccccc4)c3)c2c1N [Example 291] |
| – | 10 to 20 | > 60 | 0.1 to 10 | NC(=O)c1sc2ncnc(-c3cccc(NC(=O)Nc4ccncc4)c3)c2c1N [Example 292] |
| – | 0.1 to 10 | 0.1 to 10 | 0.1 to 10 | NC(=O)c1sc2ncnc(-c3cccc(NC(=O)Nc4cccc(C(F)(F)F)c4)c3)c2c1N [Example 295] |
| – | 10 to 20 | 30 to 60 | 0.1 to 10 | NC(=O)c1sc2ncnc(-c3cccc(NC(=O)Nc4ccccc4C(F)(F)F)c3)c2c1N [Example 296] |
